Assay results as given in US10227360B2, “Compounds for use as GPR120 agonists” (PIRAMAL ENTERPRISES LIMITED, priority 2014, dated 2019).

Molecular target: GPR120L receptor (Homo sapiens (Human), UniProt Q5NUL3)
Experiment: Beta (β) arrestin 2 Interaction Assay (BRET assay), β-galactosidase enzyme fragment complementation
Assay type: cell-based
Details: CHO-K1 cells stably expressing the GPR120L receptor; β-arrestin recruitment; 2 hours incubation
Method: Beta (β) arrestin 2 Interaction Assay (BRET assay) was performed using CHO-K1 cells stably expressing the GPR120L receptor using β-galactosidase (Beta gal) enzyme fragment complementation assay. The measurement of GPR120 activation upon agonist activation was directly provided by β-arrestin recruitment. One day before the β-arrestin 2 assay, CHO-K1 cells were seeded and incubated overnight at 37° C. in a 5% CO2 humidified atmosphere. Cells were treated with the test compounds in the various concentrations ranging from 30 μM to 1 nM and incubated for 2 hours for GPCR (GPR120) activation. Extent of Arrestin recruitment was measured by adding detection reagents for Beta gal complementation assay and was further incubated for 1 hour. The chemi-luminescent signal was detected on Polar Star (BMG Labtech). The dose-response curve was analyzed using Sigma Plot/Graph Pad. The EC50 (concentration of the test compounds where 50% of compounds' maximal activity is observed) values were calculated from the dose-response curve.

Chain of GPR120L receptor (Q5NUL3 other isoform, or with tags, fused parts or gaps): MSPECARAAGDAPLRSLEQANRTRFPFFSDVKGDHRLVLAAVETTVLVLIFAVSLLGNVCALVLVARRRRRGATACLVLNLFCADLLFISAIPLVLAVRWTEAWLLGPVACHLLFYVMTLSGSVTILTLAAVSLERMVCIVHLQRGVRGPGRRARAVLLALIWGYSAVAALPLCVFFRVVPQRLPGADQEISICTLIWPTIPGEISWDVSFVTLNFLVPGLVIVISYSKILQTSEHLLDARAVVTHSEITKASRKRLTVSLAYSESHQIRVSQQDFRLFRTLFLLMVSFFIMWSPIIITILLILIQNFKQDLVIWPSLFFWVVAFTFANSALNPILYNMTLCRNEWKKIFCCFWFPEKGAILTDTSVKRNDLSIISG

Row | Compound | EC50 [nM]
1 | N#CC1(c2ccc(-c3ccc(F)cc3COc3ccc(CCCC(=O)O)cc3)s2)CC1 [Example 1, 4-(4-((2-(5-(1-Cyanocyclopropyl)thiophen-2-yl)-5-fluorobenzyl)oxy)phenyl)butanoic acid] | 10 to 500
2 | N#CC1(c2ccc(-c3ccc(F)cc3COc3ccc(CCC(=O)O)cc3)s2)CC1 [Example 2, 3-(4-((2-(5-(1-Cyanocyclopropyl)thiophen-2-yl)-5-fluorobenzyl)oxy)phenyl)propanoic acid] | 500 to 5000
3 | CC1(c2ccc(-c3ccc(F)cc3COc3ccc(CCCC(=O)O)cc3)cc2)CC1 [Example 3, 4-(4-((4-Fluoro-4′-(1-methylcyclopropyl)-[1,1′-biphenyl]-2-yl)methoxy)phenyl)butanoic acid] | 10 to 500
4 | N#CC1(c2ccc(-c3ccc(F)cc3COc3ccc(CCCC(=O)O)cc3)cc2)CC1 [Example 4, 4-(4-((4′-(1-Cyanocyclopropyl)-4-fluoro-[1,1′-biphenyl]-2-yl)methoxy)phenyl)butanoic acid] | 10 to 500
5 | N#CC1(c2ccc(-c3ccc(F)cc3COc3ccc(CCC(=O)O)cc3)cc2)CC1 [Example 5, 3-(4-((4′-(1-Cyanocyclopropyl)-4-fluoro-[1,1′-biphenyl]-2-yl)methoxy)phenyl)propanoic acid] | 10 to 500
6 | N#CC1(c2ccc(-c3ccc(F)cc3COc3ccc(CCC(=O)O)cc3)cn2)CC1 [Example 6, 3-(4-((2-(6-(1-Cyanocyclopropyl)pyridin-3-yl)-5-fluorobenzyl)oxy)phenyl)propanoic acid] | 500 to 5000
7 | O=C(O)CCCc1ccc(OCc2cc(F)ccc2-c2ccc(C3CC3)cc2)cc1 [Example 7, 4-(4-((4′-Cyclopropyl-4-fluoro-[1,1′-biphenyl]-2-yl)methoxy)phenyl)butanoic acid] | 10 to 500
8 | O=C(O)CCCc1ccc(OCc2cc(F)ccc2-c2ccc3c(c2)CCC3)cc1 [Example 8, 4-(4-((2-(2,3-Dihydro-1H-inden-5-yl)-5-fluorobenzyl)oxy)phenyl)butanoic acid] | 10 to 500
9 | O=C(O)CCCc1ccc(OCc2cc(F)ccc2-c2ccc3c(c2)CCCC3)cc1 [Example 9, 4-(4-((5-Fluoro-2-(5,6,7,8-tetrahydronaphthalen-2-yl)benzyl)oxy)phenyl)butanoic acid] | 10 to 500
10 | O=C(O)CCCc1ccc(OCc2cc(F)ccc2-c2ccc3c(c2)CC3)cc1 [Example 10, 4-(4-((2-(Bicyclo[4.2.0]octa-1(6),2,4-trien-3-yl)-5-fluorobenzyl)oxy)phenyl)butanoic acid] | 10 to 500
11 | O=C(O)CCCc1ccc(OCc2cc(F)ccc2-c2ccc(C3CC3)s2)cc1 [Example 11, 4-(4-((2-(5-Cyclopropylthiophen-2-yl)-5-fluorobenzyl)oxy)phenyl)butanoic acid] | 10 to 500
12 | O=C(O)CCCc1ccc(OCc2cc(F)ccc2-c2ccc(C3(O)CCC3)s2)cc1 [Example 12, 4-(4-((5-Fluoro-2-(5-(1-hydroxycyclobutyl)thiophen-2-yl)benzyl)oxy)phenyl)butanoic acid] | 500 to 5000
13 | O=C(O)CCc1ccc(OCc2cc(F)ccc2-c2ccc(C3COC3)cc2)cc1 [Example 13, 3-(4-((4-Fluoro-4′-(oxetan-3-yl)-[1,1′-biphenyl]-2-yl)methoxy)phenyl)propanoic acid] | 5000 to 50000
14 | O=C(O)CCc1ccc(OCc2cc(F)ccc2-c2ccc(C3(O)CCC3)cc2)cc1 [Example 14, 3-(4-((4-Fluoro-4′-(1-hydroxycyclobutyl)-[1,1′-biphenyl]-2-yl)methoxy)phenyl)propanoic acid] | 500 to 5000
15 | CC1(C)CCC=C1c1ccc(-c2ccc(F)cc2COc2ccc(CCC(=O)O)cc2)cc1 [Example 15, 3-(4-((4′-(5,5-Dimethylcyclopent-1-en-1-yl)-4-fluoro-[1,1′-biphenyl]-2-yl)methoxy)phenyl)propanoic acid] | 5000 to 50000
16 | O=C(O)CCCc1ccc(OCc2cc(F)ccc2-c2ccc(C3CCCCC3)cc2)cc1 [Example 16, 4-(4-((4′-Cyclohexyl-4-fluoro-[1,1′-biphenyl]-2-yl)methoxy)phenyl)butanoic acid] | 500 to 5000
17 | O=C(O)CCc1ccc(OCc2cc(F)ccc2-c2ccc(C3COC3)nc2)cc1 [Example 17, 3-(4-((5-Fluoro-2-(6-(oxetan-3-yl)pyridin-3-yl)benzyl)oxy)phenyl)propanoic acid] | 5000 to 50000
18 | CC1=CCCc2cc(-c3ccc(F)cc3COc3ccc(CCCC(=O)O)cc3)ccc21 [Example 37] | 500 to 5000

Further lines, results first:

Row | EC50 [nM] | Compound
19 | 10 to 500 | N#CC1(c2ccc(-c3ccc(F)cc3COc3ccc(CCC(=O)O)nc3)cc2)CC1 [Example 18, 3-(5-((4′-(1-Cyanocyclopropyl)-4-fluoro-[1,1′-biphenyl]-2-yl)methoxy)pyridin-2-yl)propanoic acid]
20 | 500 to 5000 | N#CC1(c2ccc(-c3ccncc3COc3ccc(CCCC(=O)O)cc3)cc2)CC1 [Example 19, 4-(4-((4-(4-(1-Cyanocyclopropyl)phenyl)pyridin-3-yl)methoxy)phenyl)butanoic acid]
21 | 500 to 5000 | O=C(O)CCc1ccc(OCc2cc(F)ccc2-c2ccc3c(c2)CC3)cn1 [Example 20, 3-(5-((2-(Bicyclo[4.2.0]octa-1(6),2,4-trien-3-yl)-5-fluorobenzyl)oxy)pyridin-2-yl)propanoic acid]
22 | 5000 to 50000 | N#CC1(c2ccc(-c3ncccc3COc3ccc(CCC(=O)O)cc3)cc2)CC1 [Example 21, 3-(4-((2-(4-(1-Cyanocyclopropyl)phenyl)pyridin-3-yl)methoxy)phenyl)propanoic acid]
23 | 10 to 500 | O=C(O)CCCc1ccc(OCc2cc(F)ccc2-c2ccc3c(c2)CCO3)cc1 [Example 22, 4-(4-((2-(2,3-Dihydrobenzofuran-5-yl)-5-fluorobenzyl)oxy)phenyl)butanoic acid]
24 | 10 to 500 | O=C(O)CCCc1ccc(OCc2cc(F)ccc2-c2cc3c(s2)CCCC3)cc1 [Example 23, 4-(4-((5-Fluoro-2-(4,5,6,7-tetrahydrobenzo[b]thiophen-2-yl)benzyl)oxy)phenyl)butanoic acid]
25 | 10 to 500 | O=C(O)CCCc1ccc(OCc2cc(F)ccc2-c2cnc3c(c2)CCC3)cc1 [Example 24, 4-(4-((2-(6,7-Dihydro-5H-cyclopenta[b]pyridin-3-yl)-5-fluorobenzyl)oxy)phenyl)butanoic acid]
26 | 500 to 5000 | C=C1CCCc2nc(-c3ccc(F)cc3COc3ccc(CCCC(=O)O)cc3)sc21 [Example 25, 4-(4-((5-Fluoro-2-(7-methylene-4,5,6,7-tetrahydrobenzo[d]thiazol-2-yl)benzyl)oxy)phenyl)butanoic acid]
27 | 10 to 500 | O=C(O)CCCc1ccc(OCc2ccccc2-c2ccc3c(c2)CC3)cc1 [Example 26, 4-(4-((2-(Bicyclo[4.2.0]octa-1(6),2,4-trien-3-yl)benzyl)oxy)phenyl)butanoic acid]
28 | 10 to 500 | O=C(O)CCCc1ccc(OCc2ccccc2-c2ccc3c(c2)CCCC3)cc1 [Example 27, 4-(4-((2-(5,6,7,8-tetrahydronaphthalen-2-yl)benzyl)oxy)phenyl)butanoic acid]
29 | 10 to 500 | O=C(O)CCCc1ccc(OCc2cc(F)ccc2-c2ccc(C3CCC3)s2)cc1 [Example 28, 4-(4-((2-(5-Cyclobutylthiophen-2-yl)-5-fluorobenzyl)oxy)phenyl)butanoic acid]
30 | 10 to 500 | Cc1cc(-c2ccc(F)cc2COc2ccc(CCCC(=O)O)cc2)ccc1C1CC1 [Example 29, 4-(4-((4′-cyclopropyl-4-fluoro-3′-methyl-[1,1′-biphenyl]-2-yl)methoxy)phenyl)butanoic acid]
31 | 10 to 500 | O=C(O)CCCc1ccc(OCc2cc(F)ccc2-c2ccc(C3CC3)nc2)cc1 [Example 30, 4-(4-((2-(6-Cyclopropylpyridin-3-yl)-5-fluorobenzyl)oxy)phenyl)butanoic acid]
32 | 10 to 500 | O=C(O)CCCc1ccc(OCc2cc(F)ccc2-c2cnc(C3CC3)nc2)cc1 [Example 31, 4-(4-((2-(2-Cyclopropylpyrimidin-5-yl)-5-fluorobenzyl)oxy)phenyl)butanoic acid]
33 | 5000 to 50000 | O=C(O)CCCc1ccc(OCc2cc(F)ccc2-c2scnc2C2CC2)cc1 [Example 32, 4-(4-((2-(4-Cyclopropylthiazol-5-yl)-5-fluorobenzyl)oxy)phenyl)butanoic acid]
34 | 10 to 500 | O=C(O)CCCc1ccc(OCc2ccccc2-c2ccc3c(c2)CCC3)cc1 [Example 33, 4-(4-((2-(2,3-Dihydro-1H-inden-5-yl)benzyl)oxy)phenyl)butanoic acid]
35 | 500 to 5000 | O=C(O)CCCc1ccc(OCc2cc(F)ccc2-c2ccc3c(c2)CCCC3=O)cc1 [Example 34, 4-(4-((5-Fluoro-2-(5-oxo-5,6,7,8-tetrahydronaphthalen-2-yl)benzyl)oxy)phenyl)butanoic acid]
36 | 10 to 500 | O=C(O)CCCc1ccc(OCc2cc(F)ccc2-c2ccc3c(c2)CCC=C3)cc1 [Example 35, 4-(4-((2-(7,8-Dihydronaphthalen-2-yl)-5-fluorobenzyl)oxy)phenyl)butanoic acid]
37 | 10 to 500 | C=C1CCCc2cc(-c3ccc(F)cc3COc3ccc(CCCC(=O)O)cc3)ccc21 [Example 36, 4-(4-((5-Fluoro-2-(5-methylene-5,6,7,8-tetrahydronaphthalen-2-yl)benzyl)oxy)phenyl)butanoic acid]
38 | 5000 to 50000 | COC1CCCc2cc(-c3ccc(F)cc3COc3ccc(CCCC(=O)O)cc3)ccc21 (stereo not drawn) [Example 38, 4-(4-((5-Fluoro-2-(5-methoxy-5,6,7,8-tetrahydronaphthalen-2-yl)benzyl)oxy)phenyl)butanoic acid]
39 | 5000 to 50000 | COC1(C)CCCc2cc(-c3ccc(F)cc3COc3ccc(CCCC(=O)O)cc3)ccc21 (stereo not drawn) [Example 39, 4-(4-((5-Fluoro-2-(5-methoxy-5-methyl-5,6,7,8-tetrahydronaphthalen-2-yl)benzyl)oxy)phenyl)butanoic acid]
